Experimental findings from PubChem BioAssay AID1963867 (Molecular Pharmacology Branch, DTP, NCI, 2024) are described below.

Some results are limits rather than exact numbers.
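Further: spheroids exposed to agents for seven days before reading.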
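Wherever viability, T/C is given: 100% = DMSO vehicle wells so lower means fewer viable cells.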

The subject of one assay is KRAS-mutant PDC tumor spheroid with HUVEC/MSC, viability. Briefly: Anticancer human tumor 327498-153-R-J2-PDC patient-derived uterine carcinosarcoma cell line growth inhibition [KRAS2]. The conditions noted are these: curve of first compound; second compound 0.1 µM. An outline of the steps:
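Combination screen of spheroid viability in tumor-cell co-cultures with endothelial (HUVEC) and mesenchymal stem cell stroma. Each agent was tested in half-log dilutions, topping at clinical Cmax or at 10 microM without a known Cmax.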
Usually IC50 stands for the concentration that gives 50% inhibition. In the case of `CC1COCCN1c1cc(-c2ccnn2C)c2ccnc(-c3ccn[nH]3)c2n1` (stereo not drawn) + COc1cc2nc(C)nc(NC(C)c3cc(N)cc(C(F)(F)F)c3)c2cc1OC1CCOC1, the IC50 stood at 13 nM.
Regarding `CC1OCC2(CCN(c3cnc(Sc4ccnc(N)c4Cl)c(N)n3)CC2)C1N` (stereo not drawn) + COc1cc2nc(C)nc(NC(C)c3cc(N)cc(C(F)(F)F)c3)c2cc1OC1CCOC1, the IC50 was 129 nM.
`CCN1CCN(Cc2ccc(Nc3ncc(F)c(-c4cc(F)c5nc(C)n(C(C)C)c5c4)n3)nc2)CC1` + COc1cc2nc(C)nc(NC(C)c3cc(N)cc(C(F)(F)F)c3)c2cc1OC1CCOC1: the IC50 amounted to 10.6 nM.
The same measure, in the same setting: next, `CCNC(=O)CC1N=C(c2ccc(Cl)cc2)c2cc(OC)ccc2-n2c(C)nnc21` (stereo not drawn) + COc1cc2nc(C)nc(NC(C)c3cc(N)cc(C(F)(F)F)c3)c2cc1OC1CCOC1: 459 nM; `Cn1nccc1Nc1nccc(-c2cc3c(s2)C(C)(C)N(CCN2CCOCC2)C3=O)n1` + COc1cc2nc(C)nc(NC(C)c3cc(N)cc(C(F)(F)F)c3)c2cc1OC1CCOC1: 851 nM.

Staying with this assay, now noted: curve of first compound; second compound 0.316 µM.
As for `CC1COCCN1c1cc(-c2ccnn2C)c2ccnc(-c3ccn[nH]3)c2n1` (stereo not drawn) + COc1cc2nc(C)nc(NC(C)c3cc(N)cc(C(F)(F)F)c3)c2cc1OC1CCOC1, the IC50 is 20.7 nM.
For `CC1OCC2(CCN(c3cnc(Sc4ccnc(N)c4Cl)c(N)n3)CC2)C1N` (stereo not drawn) + COc1cc2nc(C)nc(NC(C)c3cc(N)cc(C(F)(F)F)c3)c2cc1OC1CCOC1, the IC50 was determined as 85.5 nM.
With `CCN1CCN(Cc2ccc(Nc3ncc(F)c(-c4cc(F)c5nc(C)n(C(C)C)c5c4)n3)nc2)CC1` + COc1cc2nc(C)nc(NC(C)c3cc(N)cc(C(F)(F)F)c3)c2cc1OC1CCOC1, the IC50 came to 6.84 nM.
In the case of `CCNC(=O)CC1N=C(c2ccc(Cl)cc2)c2cc(OC)ccc2-n2c(C)nnc21` (stereo not drawn) + COc1cc2nc(C)nc(NC(C)c3cc(N)cc(C(F)(F)F)c3)c2cc1OC1CCOC1, the IC50 was determined as 420 nM.
On the same count and under the same terms, next, `Cn1nccc1Nc1nccc(-c2cc3c(s2)C(C)(C)N(CCN2CCOCC2)C3=O)n1` + COc1cc2nc(C)nc(NC(C)c3cc(N)cc(C(F)(F)F)c3)c2cc1OC1CCOC1: 560 nM.

Staying with this assay, now noted: curve of first compound; second compound 1 µM.
Regarding `CC1COCCN1c1cc(-c2ccnn2C)c2ccnc(-c3ccn[nH]3)c2n1` (stereo not drawn) + COc1cc2nc(C)nc(NC(C)c3cc(N)cc(C(F)(F)F)c3)c2cc1OC1CCOC1, the IC50 turned out to be 15.4 nM.
With `CC1OCC2(CCN(c3cnc(Sc4ccnc(N)c4Cl)c(N)n3)CC2)C1N` (stereo not drawn) + COc1cc2nc(C)nc(NC(C)c3cc(N)cc(C(F)(F)F)c3)c2cc1OC1CCOC1, the IC50 came out at 99.3 nM.
Still for that read-out and setting: next, `CCN1CCN(Cc2ccc(Nc3ncc(F)c(-c4cc(F)c5nc(C)n(C(C)C)c5c4)n3)nc2)CC1` + COc1cc2nc(C)nc(NC(C)c3cc(N)cc(C(F)(F)F)c3)c2cc1OC1CCOC1: below 3.16 nM.
On the same count and under the same terms, next, `CCNC(=O)CC1N=C(c2ccc(Cl)cc2)c2cc(OC)ccc2-n2c(C)nnc21` (stereo not drawn) + COc1cc2nc(C)nc(NC(C)c3cc(N)cc(C(F)(F)F)c3)c2cc1OC1CCOC1: 352 nM.
As to `Cn1nccc1Nc1nccc(-c2cc3c(s2)C(C)(C)N(CCN2CCOCC2)C3=O)n1` + COc1cc2nc(C)nc(NC(C)c3cc(N)cc(C(F)(F)F)c3)c2cc1OC1CCOC1, the half-maximal inhibitory concentration (IC50) turned out to be 826 nM.

Still in this assay, the particulars now being: curve of first compound; second compound 3.16 µM.
Turning to `CC1COCCN1c1cc(-c2ccnn2C)c2ccnc(-c3ccn[nH]3)c2n1` (stereo not drawn) + COc1cc2nc(C)nc(NC(C)c3cc(N)cc(C(F)(F)F)c3)c2cc1OC1CCOC1, the IC50 was found to be 13.2 nM.
The same measure, in the same setting: next, `CC1OCC2(CCN(c3cnc(Sc4ccnc(N)c4Cl)c(N)n3)CC2)C1N` (stereo not drawn) + COc1cc2nc(C)nc(NC(C)c3cc(N)cc(C(F)(F)F)c3)c2cc1OC1CCOC1: 64.8 nM.
The same measure, in the same setting: next, `CCN1CCN(Cc2ccc(Nc3ncc(F)c(-c4cc(F)c5nc(C)n(C(C)C)c5c4)n3)nc2)CC1` + COc1cc2nc(C)nc(NC(C)c3cc(N)cc(C(F)(F)F)c3)c2cc1OC1CCOC1: 4.42 nM; `CCNC(=O)CC1N=C(c2ccc(Cl)cc2)c2cc(OC)ccc2-n2c(C)nnc21` (stereo not drawn) + COc1cc2nc(C)nc(NC(C)c3cc(N)cc(C(F)(F)F)c3)c2cc1OC1CCOC1: 189 nM.
The same measure, in the same setting: next, `Cn1nccc1Nc1nccc(-c2cc3c(s2)C(C)(C)N(CCN2CCOCC2)C3=O)n1` + COc1cc2nc(C)nc(NC(C)c3cc(N)cc(C(F)(F)F)c3)c2cc1OC1CCOC1: 531 nM.

The assay is the same for the next values; noted with them: curve of first compound; second compound 10 µM.
Consider `CC1COCCN1c1cc(-c2ccnn2C)c2ccnc(-c3ccn[nH]3)c2n1` (stereo not drawn) + COc1cc2nc(C)nc(NC(C)c3cc(N)cc(C(F)(F)F)c3)c2cc1OC1CCOC1, for which the IC50 is below 10 nM.
Consider `CC1OCC2(CCN(c3cnc(Sc4ccnc(N)c4Cl)c(N)n3)CC2)C1N` (stereo not drawn) + COc1cc2nc(C)nc(NC(C)c3cc(N)cc(C(F)(F)F)c3)c2cc1OC1CCOC1, for which the IC50 was below 31.6 nM.
The same measure, in the same setting: next, `CCN1CCN(Cc2ccc(Nc3ncc(F)c(-c4cc(F)c5nc(C)n(C(C)C)c5c4)n3)nc2)CC1` + COc1cc2nc(C)nc(NC(C)c3cc(N)cc(C(F)(F)F)c3)c2cc1OC1CCOC1: below 3.16 nM; `CCNC(=O)CC1N=C(c2ccc(Cl)cc2)c2cc(OC)ccc2-n2c(C)nnc21` (stereo not drawn) + COc1cc2nc(C)nc(NC(C)c3cc(N)cc(C(F)(F)F)c3)c2cc1OC1CCOC1: 172 nM; `Cn1nccc1Nc1nccc(-c2cc3c(s2)C(C)(C)N(CCN2CCOCC2)C3=O)n1` + COc1cc2nc(C)nc(NC(C)c3cc(N)cc(C(F)(F)F)c3)c2cc1OC1CCOC1: 47.2 nM.

The same assay, now with this note: second compound 0.1 µM; first compound 0.00316 µM; stronger effect = lower value.
For orientation: viability, T/C means the result in the treated group divided by that in the control group, in per cent. For `CCN1CCN(Cc2ccc(Nc3ncc(F)c(-c4cc(F)c5nc(C)n(C(C)C)c5c4)n3)nc2)CC1` + COc1cc2nc(C)nc(NC(C)c3cc(N)cc(C(F)(F)F)c3)c2cc1OC1CCOC1, the viability, T/C was 65.4%.

The assay is the same for the next values; noted with them: second compound 0.1 µM; first compound 0.01 µM; stronger effect = lower value.
Turning to `CC1COCCN1c1cc(-c2ccnn2C)c2ccnc(-c3ccn[nH]3)c2n1` (stereo not drawn) + COc1cc2nc(C)nc(NC(C)c3cc(N)cc(C(F)(F)F)c3)c2cc1OC1CCOC1, the viability, T/C is 63.9%.
Take `CCN1CCN(Cc2ccc(Nc3ncc(F)c(-c4cc(F)c5nc(C)n(C(C)C)c5c4)n3)nc2)CC1` + COc1cc2nc(C)nc(NC(C)c3cc(N)cc(C(F)(F)F)c3)c2cc1OC1CCOC1: the viability, T/C is 52.8%.

The assay is the same for the next values; noted with them: second compound 0.1 µM; first compound 0.0316 µM; stronger effect = lower value.
On to `CC1COCCN1c1cc(-c2ccnn2C)c2ccnc(-c3ccn[nH]3)c2n1` (stereo not drawn) + COc1cc2nc(C)nc(NC(C)c3cc(N)cc(C(F)(F)F)c3)c2cc1OC1CCOC1, for which the viability, T/C was 3.7%.
On the same count and under the same terms, next, `CC1OCC2(CCN(c3cnc(Sc4ccnc(N)c4Cl)c(N)n3)CC2)C1N` (stereo not drawn) + COc1cc2nc(C)nc(NC(C)c3cc(N)cc(C(F)(F)F)c3)c2cc1OC1CCOC1: 72.8%; `CCN1CCN(Cc2ccc(Nc3ncc(F)c(-c4cc(F)c5nc(C)n(C(C)C)c5c4)n3)nc2)CC1` + COc1cc2nc(C)nc(NC(C)c3cc(N)cc(C(F)(F)F)c3)c2cc1OC1CCOC1: 42.6%; `CCNC(=O)CC1N=C(c2ccc(Cl)cc2)c2cc(OC)ccc2-n2c(C)nnc21` (stereo not drawn) + COc1cc2nc(C)nc(NC(C)c3cc(N)cc(C(F)(F)F)c3)c2cc1OC1CCOC1: 84.7%.
In the case of `Cn1nccc1Nc1nccc(-c2cc3c(s2)C(C)(C)N(CCN2CCOCC2)C3=O)n1` + COc1cc2nc(C)nc(NC(C)c3cc(N)cc(C(F)(F)F)c3)c2cc1OC1CCOC1, the viability, T/C was 72.8%.

The assay is the same for the next values; noted with them: second compound 0.1 µM; first compound 0.1 µM; stronger effect = lower value.
Consider `CC1COCCN1c1cc(-c2ccnn2C)c2ccnc(-c3ccn[nH]3)c2n1` (stereo not drawn) + COc1cc2nc(C)nc(NC(C)c3cc(N)cc(C(F)(F)F)c3)c2cc1OC1CCOC1, for which the viability, T/C was 2.44%.
Same read-out and setting: next, `CC1OCC2(CCN(c3cnc(Sc4ccnc(N)c4Cl)c(N)n3)CC2)C1N` (stereo not drawn) + COc1cc2nc(C)nc(NC(C)c3cc(N)cc(C(F)(F)F)c3)c2cc1OC1CCOC1: 46.9%; `CCN1CCN(Cc2ccc(Nc3ncc(F)c(-c4cc(F)c5nc(C)n(C(C)C)c5c4)n3)nc2)CC1` + COc1cc2nc(C)nc(NC(C)c3cc(N)cc(C(F)(F)F)c3)c2cc1OC1CCOC1: 40%; `CCNC(=O)CC1N=C(c2ccc(Cl)cc2)c2cc(OC)ccc2-n2c(C)nnc21` (stereo not drawn) + COc1cc2nc(C)nc(NC(C)c3cc(N)cc(C(F)(F)F)c3)c2cc1OC1CCOC1: 81.5%.
Still for that read-out and setting: next, `Cn1nccc1Nc1nccc(-c2cc3c(s2)C(C)(C)N(CCN2CCOCC2)C3=O)n1` + COc1cc2nc(C)nc(NC(C)c3cc(N)cc(C(F)(F)F)c3)c2cc1OC1CCOC1: 73.2%.

The same assay, now with this note: second compound 0.1 µM; first compound 0.316 µM; stronger effect = lower value.
As for `CC1COCCN1c1cc(-c2ccnn2C)c2ccnc(-c3ccn[nH]3)c2n1` (stereo not drawn) + COc1cc2nc(C)nc(NC(C)c3cc(N)cc(C(F)(F)F)c3)c2cc1OC1CCOC1, the viability, T/C was 3.52%.
For the molecule `CC1OCC2(CCN(c3cnc(Sc4ccnc(N)c4Cl)c(N)n3)CC2)C1N` (stereo not drawn) + COc1cc2nc(C)nc(NC(C)c3cc(N)cc(C(F)(F)F)c3)c2cc1OC1CCOC1, the viability, T/C was 44.7%.
Same read-out and setting: next, `CCN1CCN(Cc2ccc(Nc3ncc(F)c(-c4cc(F)c5nc(C)n(C(C)C)c5c4)n3)nc2)CC1` + COc1cc2nc(C)nc(NC(C)c3cc(N)cc(C(F)(F)F)c3)c2cc1OC1CCOC1: 40%; `CCNC(=O)CC1N=C(c2ccc(Cl)cc2)c2cc(OC)ccc2-n2c(C)nnc21` (stereo not drawn) + COc1cc2nc(C)nc(NC(C)c3cc(N)cc(C(F)(F)F)c3)c2cc1OC1CCOC1: 59.2%; `Cn1nccc1Nc1nccc(-c2cc3c(s2)C(C)(C)N(CCN2CCOCC2)C3=O)n1` + COc1cc2nc(C)nc(NC(C)c3cc(N)cc(C(F)(F)F)c3)c2cc1OC1CCOC1: 57.6%.
